# Marks after values point to notes of the source that are not given here.
# Assays:
# [1] = system: model of L-NAME-induced NO deficiency; conditions: cited from earlier work
# [2] = system: male Wistar rats, model of arterial hypertension with endothelial dysfunction; assay: Blood pressure and heart rate in rat model of arterial hypertension with endothelial dysfunction (L-NAME + 3% NaCl); type: in vivo; conditions: for DBP / HR / SBP: M ± m, n = 8
# Procedure: (§1) In the model of arterial hypertension with endothelial dysfunction, endothelial NOS blocker N-nitro-L-arginine methyl ester (L-NAME) was administered intraperitoneally, 25 mg/kg, daily, for 7 days. The blocker was administered in 3% sodium chloride in the dose 1 ml/100 g of body weight. This combination of NO-synthase inhibitor with hypertonic solution provides RAAS activation, aldosterone discharge, retention of sodium and water, functional impairment of the vascular endothelium.
# The experiments were performed with the use of 40 white male Wistar rats with the baseline body weight 220-240 g and 20 white virgin female rats 180-200 g. The animals were purchased from Rappolovo farm (Russian Academy of Medical Sciences, Saint-Petersburg). Besides mixed fodder, the rats received bread.
# AS-6 substance (lot 080909) containing 101.0% of the active ingredient was used, according to the Protocol of Analysis No. 80-Pr, dated by 25 Sep. 2009 (Federal State Unitary Enterprise Special Technology and Construction Bureau “Tekhnolog”). The substance was used for preparation of solutions for daily oral administration based on the physiological saline.
# The physiological saline was used as placebo. The solutions were administered daily through the atraumatic metallic feeding tube with fire-polished olive with the use of dosing syringe.
# (§2) The animals were divided into the arms as follows: 1—intact animals; 2—control group, males (L-NAME+NaCl; physiological saline as placebo); 3—male rats that received AS-6 in the dose 0.5 mg/kg (Dose 1); 4—male rats that received AS-6 in the dose 5 mg/kg (Dose 2); 5—male rats that received AS-6 in the dose 10 mg/kg (Dose 3); 6—virgin female rats (only in the assessment of the sexual activity). Each group included 8 animals.
# The measurement of the blood pressure in rats was performed with the use of the system for non-invasive blood pressure measurement for small animals within the complex Polygraph for electrophysiological studies (MP150WSW “BIOPAC Systems, Inc.”, USA.)
# Rats were placed into special boxes. HR and BP (SBP and DBP) were recorded several minutes after the stabilization of the measured parameters. The parameters were measured on the tails with the use of piezoelectric probe and corresponding cuff, several minutes following animal placement on the thermostated sheet that maintained the temperature in the chambers within 26-27° C. The functional cardiovascular testing was performed before (at baseline) and after the administration of NOS inhibitor and at the end of treatment.
# endothelin-1 (ET-1) = assay: Serum endothelin-1 (ELISA) in the model of arterial hypertension with endothelial dysfunction; type: in vivo, rat; conditions: for ET-1: rat serum at the end of experiment, M ± m, n = 8
# Procedure: as §1, §2
# (§3) Biochemical parameters were assessed with the use of prearranged kits (USCN Life Science Inc., USA, Bender MedSystems GmbH, Austria, R&D Systems, USA). The measurement was performed with the use of multifunctional photometer Synergy-2 (BioTek Instruments, Inc., USA). All studies were conducted in compliance with current laboratory regulations.
# (§4) The assessment of endothelin-1, vascular endothelial growth factor and nitric oxide levels was performed in the rats' serum at the end of experiment with the use of immuno-enzyme analysis and spectrophotometric analysis with species-specific (rat-specific) antibodies.
# Quantitative measurement of endothelin-1 (ET-1) was performed with the use of ELISA with USCN Life Science Inc. (USA) kits. Serum samples of the experimental animals (50 mcL) and standards of known concentrations were introduced into the plate wells. Then, 50 mcL of detecting solution (reagent A) were introduced. After 1-hour incubation at 37° C., the wells were 3-fold rinsed, and 100 mcL of detecting solution (reagent B) were introduced into each well. Thereafter, the plate was incubated again at 37° C. for 30 minutes. The plate was rinsed with washing buffer 5 times, and 90 mcL of TMB substrate were introduced into each well. After 15-minute incubation at 37° C., 50 mcL of stop-solution were added. The reaction was read at 450 nm.
# [3] = system: vascular endothelial growth factor (VEGF); assay: Serum vascular endothelial growth factor (ELISA) in the model of arterial hypertension with endothelial dysfunction; type: in vivo, rat; conditions: for VEGF: rat serum at the end of experiment, M ± m, n = 8
# Procedure: as §1, §2, §3, §4
# Quantitative measurement of vascular endothelial growth factor (VEGF) was performed with the use of ELISA with Bender MedSystems GmbH (Austria) kits. Calibration solution 100 mcL, serum samples of the experimental animals (50 mcL) and sample diluent (50 mcL) were introduced into the plate wells. Then, 50 mcL of biotin conjugate were added. After 2-hour incubation at 20° C., the wells were 6 time rinsed, and 100 mcL of streptavidin/horseradish peroxidase conjugate were introduced into each well. Thereafter, the plate was incubated again at 37° C. for 1 hour. The plate was 6 times rinsed with washing buffer, and 100 mcL of TMB substrate were introduced into each well. After 30-minute incubation at 20° C., 100 mcL of stop-solution were added. The reaction was read at 450 and 620 nm.
# nitric oxide (NO) = assay: Serum unbound nitric oxide (spectrophotometry, Griss reagent) in the model of arterial hypertension with endothelial dysfunction; type: in vivo, rat; conditions: for NO: rat serum at the end of experiment, M ± m, n = 8
# Procedure: as §1, §2, §3, §4
# Quantitative measurement of unbound nitric oxide was performed with the use spectrophotometry with R&D Systems kits (USA). The proteins were precipitated with zinc sulphate/sodium hydroxide. Serum supernatant samples of the experimental animals (50 mcL) and standards of known concentrations were introduced into the plate wells. Then, 50 mcL of sample diluent, Griss reagent 1 and Griss reagent 2 were added. The reaction was read at 540 and 690 nm after 10-minute incubation at 37° C.
# [4] = system: sexual behaviour in male rats; assay: Sexual activity of male rats with a receptive female, 30-minute observation after the treatment cycle; type: in vivo, rat; set-up: key to Ejaculation rate / Muzzling, licking of the females: + - present; − - absent; conditions: for Intromission rate / Mounting rate: 30-minute period; for Intromission rate / Mounting rate / Intersession interval / Mounting latency: M ± m; for Intromission rate / Mounting rate / Intersession interval / Mounting latency / Ejaculation rate / Muzzling, licking of the females: n = 8
# Procedure: as §1, §2
# Testing of the animals' sexual activity was performed after the end of treatment cycle. Tested male was placed into the testing chamber (40×40×30 cm), 5 minutes before the presentation of sexually receptive female rat. One female was placed next to each male. The assessment of sexual behaviour was performed in the dark room at blind red light. The components of sexual activity were visually recorded during a 30-minute period: mounting latency (ML—interval from the female placing into the cage to the first male mounting) and the rate of mountings, intromissions and ejaculations.
# [5] = system: purified sGC obtained of the rabbit's lungs; conditions: AS-6 100 mcmol/L, in vitro; cited from earlier work
# sGC in the aortic tissue = conditions: aorta of Wistar rats; cited from earlier work
# [6] = system: conscious SHR and Wistar rats; conditions: cited from earlier work
# [7] = 7-day-long administration of L-NAME; cited from earlier work
# NO-synthase = conditions: 7-day-long administration of L-NAME; cited from earlier work
# [8] = AS-6 0.5 mg/kg oral daily, After treatment (Day 14)
# [9] = AS-6 5 mg/kg oral daily, After treatment (Day 14)
# [10] = AS-6 10 mg/kg oral daily, After treatment (Day 14)
# [11] = arm AS-6 0.5 mg/kg, Baseline (Day 0), before L-NAME and treatment
# [12] = arm AS-6 0.5 mg/kg, Post-dose L-NAME (Day 7), before treatment
# [13] = arm AS-6 5 mg/kg, Baseline (Day 0), before L-NAME and treatment
# [14] = arm AS-6 5 mg/kg, Post-dose L-NAME (Day 7), before treatment
# [15] = arm AS-6 10 mg/kg, Baseline (Day 0), before L-NAME and treatment
# [16] = arm AS-6 10 mg/kg, Post-dose L-NAME (Day 7), before treatment
# [17] = Nicorandil (4 mg/kg) preconditioning
compound,measurement,setting,value
COc1ccc(Cl)cc1C(=O)NCCc1ccc(S(=O)(=O)NC(=O)NC2CCCCC2)cc1 [Glibenclamide],effect on protective effects of preconditioning,"[1]; Glibenclamide 4 mg/kg, blockade of ATP-dependent potassium channels",neutralized protective effects
"[O-]c1n[n+](-c2nc[nH]n2)no1 [AS-6, 3-(3-[1,2,4]-triazolo)-oxatriazolium-5-olate]",effect on SBP and DBP levels,[2]; AS-6 0.5 mg/kg,did not affect SBP or DBP levels
same,DBP,[2]; [8],111.9 ± 5.2 mm Hg
same,HR,[2]; [8],420.0 ± 13.7
same,SBP,[2]; [8],153.1 ± 7.3 mm Hg
same,effect on SBP and DBP levels,[2]; AS-6 5 mg/kg,decrease of elevated DBP and unchanged elevated SBP
same,DBP,[2]; [9],111.5 ± 7.9 mm Hg
same,HR,[2]; [9],435.9 ± 28.9
same,SBP,[2]; [9],141.9 ± 7.1 mm Hg
same,DBP,[2]; [10],102.0 ± 3.2 mm Hg
same,HR,[2]; [10],404.4 ± 17.6
same,SBP,[2]; [10],123.4 ± 4.2 mm Hg
same,effect on blood pressure,"[2]; AS-6 10 mg/kg, vs. baseline values and experimental model, p<0.05",normalization of the blood pressure
same,DBP,[2]; [11],98.7 ± 2.2 mm Hg
same,HR,[2]; [11],417.6 ± 17.6
same,SBP,[2]; [11],126.2 ± 2.5 mm Hg
same,DBP,[2]; [12],113.8 ± 4.6 mm Hg
same,HR,[2]; [12],351.8 ± 8.7
same,SBP,[2]; [12],145.0 ± 3.1 mm Hg
same,DBP,[2]; [13],97.9 ± 3.2 mm Hg
same,HR,[2]; [13],428.2 ± 22.1
same,SBP,[2]; [13],123.8 ± 3.4 mm Hg
same,DBP,[2]; [14],117.0 ± 4.4 mm Hg
same,HR,[2]; [14],376.0 ± 15.3
same,SBP,[2]; [14],148.6 ± 4.5 mm Hg
same,DBP,[2]; [15],98.5 ± 4.7 mm Hg
same,HR,[2]; [15],393.6 ± 19.1
same,SBP,[2]; [15],130.5 ± 4.6 mm Hg
same,DBP,[2]; [16],120.1 ± 5.0 mm Hg
same,HR,[2]; [16],357.1 ± 14.8
same,SBP,[2]; [16],149.1 ± 3.4 mm Hg
same,changes of the heart rate,[2]; control or experimental arm,No significant changes of the heart rate
same,"effect on blood pressure, dose dependence",[2]; peak at 10 mg/kg after 7 days of treatment,dose-dependent decrease of blood pressure
same,effect on endothelin-1 levels,"endothelin-1 (ET-1); most significant at 10 mg/kg, p=0.010 vs. control",significant favourable changes of endothelin-1 levels
same,ET-1,endothelin-1 (ET-1); AS-6 0.5 mg/kg,2.48 ± 0.50 pg/mL
same,ET-1,endothelin-1 (ET-1); AS-6 5.0 mg/kg,1.75 ± 0.48 pg/mL
same,ET-1,endothelin-1 (ET-1); AS-6 10.0 mg/kg,0.78 ± 0.29 pg/mL
same,effect on vascular endothelial growth factor production,[3]; 10 mg/kg dose: p=0.116 vs. control,dose-dependent trend to the normalization of vascular endothelial growth factor production
same,VEGF,[3]; AS-6 0.5 mg/kg,46.01 ± 2.42 pg/mL
same,VEGF,[3]; AS-6 5.0 mg/kg,79.49 ± 19.75 pg/mL
same,VEGF,[3]; AS-6 10.0 mg/kg,91.95 ± 21.84 pg/mL
same,effect on nitric oxide (NO) production,nitric oxide (NO); exceeded the level of treatment-naive animals at 10 mg/kg,dose-dependent increase of nitric oxide (NO) production
same,NO,nitric oxide (NO); AS-6 0.5 mg/kg,8.83 ± 1.06 mcmol/l
same,NO,nitric oxide (NO); AS-6 5.0 mg/kg,10.75 ± 0.55^ mcmol/l
same,NO,nitric oxide (NO); AS-6 10.0 mg/kg,14.08 ± 1.25*^ mcmol/l
same,increase of number of animals with intromissions vs. control,[4]; AS-6 10 mg/kg,4 fold
same,number of animals with intromissions,[4]; AS-6 10 mg/kg,50%
same,animals with increased mounting rate vs. control,[4]; AS-6 0.5 and 5 mg/kg,40%
same,decrease of ML (mounting latency),[4]; AS-6 0.5 and 5 mg/kg,1.5 fold
same,number of animals with intromissions,[4]; AS-6 0.5 and 5 mg/kg,25%
same,rats with increased intromission rate,[4]; AS-6 0.5 and 5 mg/kg,25%
same,Intromission rate,[4]; Azasidnon 0.5 mg/kg,1.6 ± 1.4
same,Mounting rate,[4]; Azasidnon 0.5 mg/kg,6.6 ± 2.8
same,Intersession interval,[4]; Azasidnon 0.5 mg/kg,8.8 ± 0.9 min
same,Mounting latency,[4]; Azasidnon 0.5 mg/kg,3.9 ± 0.9*^ min
same,Ejaculation rate,[4]; Azasidnon 0.5 mg/kg,−
same,"Muzzling, licking of the females",[4]; Azasidnon 0.5 mg/kg,+
same,Intromission rate,[4]; Azasidnon 5.0 mg/kg,1.4 ± 1.1
same,Mounting rate,[4]; Azasidnon 5.0 mg/kg,7.4 ± 3.1
same,Intersession interval,[4]; Azasidnon 5.0 mg/kg,10.2 ± 2.2 min
same,Mounting latency,[4]; Azasidnon 5.0 mg/kg,4.2 ± 1.9*^ min
same,Ejaculation rate,[4]; Azasidnon 5.0 mg/kg,−
same,"Muzzling, licking of the females",[4]; Azasidnon 5.0 mg/kg,+
same,Intromission rate,[4]; Azasidnon 10.0 mg/kg,3.1 ± 1.5
same,Mounting rate,[4]; Azasidnon 10.0 mg/kg,8.6 ± 2.6
same,Intersession interval,[4]; Azasidnon 10.0 mg/kg,7.5 ± 1.9 min
same,Mounting latency,[4]; Azasidnon 10.0 mg/kg,3.2 ± 1.4*^ min
same,Ejaculation rate,[4]; Azasidnon 10.0 mg/kg,−
same,"Muzzling, licking of the females",[4]; Azasidnon 10.0 mg/kg,+
same,influence on ejaculation,[4]; all doses,did not influence
same,sGC activation compared to the basal activity,[5],up to 30 fold
same,activation of cGMP synthesis compared to baseline,sGC in the aortic tissue,up to 13 fold
same,hypotensive effect,[6],prolonged hypotensive effect
"COC(=O)[C@@H](N)CCCNC(=N)N[N+](=O)[O-].Cl [L-NAME, N-omega-nitro-L-arginine methyl ester hydrochloride]",increase of endothelial dysfunction ratio,[7],5 fold
same,mean diastolic BP,NO-synthase,146.0±4.2 mm Hg
same,mean systolic blood pressure,NO-synthase,191.3±7.1 mm Hg
O=C(NCCO[N+](=O)[O-])c1cccnc1 [Nicorandil],CRP,[1]; [17],0.6 ± 0.1 mg/dL
same,NO level,[1]; [17],6.2±0.25 mcmol/L
same,endothelial dysfunction ratio (EDR),[1]; [17],1.76±0.18 AU
same,myocardium contractility during resistance testing,[1]; [17],77.2±8.3%

# Source: patent publication US9795593B2, “Use of 3-(3-[1,2,4]-triazolo)-oxatriazolium-5-olate for treating sexual disorders” (LIMITED LIABILITY COMPANY “KONSORTSIUM-PIK”, priority 2014, dated 2017)
